Earlier results, collected in US20240148714A1, “Triple Negative Breast Cancer Treatment Method” (Exelixis, Inc., priority 2016, published 2024).

System: mTNBC
Settings: bevacizumab and onartuzumab combined, with paclitaxel; mTNBC patients without previous paclitaxel for metastatic disease; cited from earlier work

| Substance | clinical benefit |
| --- | --- |
| bevacizumab | no clinical benefit |
| onartuzumab | no clinical benefit |
